Data from US10294202B2, “Pyrrolidinones as herbicides” (FMC Corporation, priority 2013, dated 2019).

How the values were obtained:
[1] = test system: wheat; assay: Test A pre-/postemergence herbicide test; type: in vivo, Triticum aestivum; conditions: Postemergence
How it was run: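 Visual injury ratings, 0 = no effect, 100 = complete control, taken ~10 days after treatment against untreated greenhouse controls. Preemergence: directed soil spray onto seeded loam/sand pots. Postemergence: spray onto plants at one- to two-leaf stage, 2–10 cm tall.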

[2] = test system: blackgrass; assay: Test C pre-/postemergence herbicide test; type: in vivo, Alopecurus myosuroides
How it was run: (§1)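 Pre- and postemergence greenhouse screen. Preemergence treatment went onto freshly planted seeds in loam–sand soil; postemergence treatment went onto plants 2 to 18 cm tall at the 1- to 4-leaf stage in sphagnum peat/vermiculite medium. Scoring at 13 to 15 days used a 0–100 control scale.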

[3] = test system: ryegrass, Italian; assay: Test C pre-/postemergence herbicide test; type: in vivo, Lolium multiflorum
How it was run: as §1

[4] = test system: galium; assay: Test C pre-/postemergence herbicide test; type: in vivo, Galium aparine
How it was run: as §1

[5] = test system: corn; assay: Test C pre-/postemergence herbicide test; type: in vivo, Zea mays
How it was run: as §1

[6] = test system: crabgrass, large; assay: Test C pre-/postemergence herbicide test; type: in vivo, Digitaria sanguinalis
How it was run: as §1

[7] = test system: johnsongrass; assay: Test C pre-/postemergence herbicide test; type: in vivo, Sorghum halepense
How it was run: as §1

[8] = test system: ragweed; assay: Test C pre-/postemergence herbicide test; type: in vivo, Ambrosia elatior
How it was run: as §1

[9] = test system: soybean; assay: Test C pre-/postemergence herbicide test; type: in vivo, Glycine max
How it was run: as §1

[10] = test system: oilseed rape; assay: Test C pre-/postemergence herbicide test; type: in vivo, Brassica napus
How it was run: as §1

[11] = test system: waterhemp; assay: Test C pre-/postemergence herbicide test; type: in vivo, Amaranthus rudis
How it was run: as §1

[12] = test system: oat, wild; assay: Test C pre-/postemergence herbicide test; type: in vivo, Avena fatua; conditions: Postemergence
How it was run: as §1

[13] = Postemergence, 31 g ai/ha, scale 0 to 100 (0 no effect, 100 complete control)
[14] = Postemergence, 62 g ai/ha, scale 0 (no effect) to 100 (complete control)
[15] = Postemergence, 125 g ai/ha, scale 0 to 100 (0 no effect, 100 complete control)
[16] = Postemergence, 250 g ai/ha, scale 0 to 100 (0 no effect, 100 complete control)
[17] = Preemergence, 31 g ai/ha, scale 0 to 100, 0 is no effect and 100 is complete control
[18] = Preemergence, 125 g ai/ha, scale 0 to 100 (0 no effect, 100 complete control)
[19] = Preemergence, 62 g ai/ha, scale 0 to 100 (0 no effect, 100 complete control)

## O=C1NCC(c2ccc(C(F)(F)F)cc2)C1C(=O)Nc1cccc(F)c1F (racemic) [Compound 202]
[1]; 125 g ai/ha, 0 to 100 scale, 0 is no effect, 100 is complete control
  Plant response rating, Wheat: 40
[1]; 500 g ai/ha
  Wheat plant response rating (0 to 100 scale, 0 is no effect, 100 is complete control): 50
[2]; [13]
  Plant response rating, Blackgrass: 0
[2]; [14]
  Plant response rating, Blackgrass: 0
[2]; [15]
  Plant response rating, Blackgrass: 5
[2]; [16]
  Plant response rating, Blackgrass: 10
[2]; [17]
  Blackgrass plant response rating: 70
[2]; Preemergence, 62 g ai/ha, scale 0 to 100
  Plant response rating, Blackgrass: 80
[2]; [18]
  Plant response rating, Blackgrass: 90
[2]; Preemergence, 250 g ai/ha
  Plant response rating (scale of 0 to 100), Blackgrass: 90
[3]; [13]
  Plant response rating, Ryegrass, Italian: 0
[3]; [14]
  Plant response rating, Ryegrass, Italian: 0
[3]; [15]
  Plant response rating, Ryegrass, Italian: 5
[3]; [16]
  Plant response rating, Ryegrass, Italian: 35
[3]; [17]
  Ryegrass, Italian plant response rating: 0
[3]; [19]
  Ryegrass, Italian plant response rating: 30
[3]; [18]
  Plant response rating, Ryegrass, Italian: 30
[3]; Preemergence, 250 g ai/ha
  Plant response rating (scale of 0 to 100), Ryegrass, Italian: 5
[4]; [13]
  Plant response rating, Galium: 80
[4]; [14]
  Plant response rating, Galium: 80
[4]; [15]
  Plant response rating, Galium: 80
[4]; [16]
  Plant response rating, Galium: 80
[4]; [17]
  Galium plant response rating: 85
[4]; [19]
  Galium plant response rating: 90
[4]; [18]
  Plant response rating, Galium: 90
[4]; Preemergence, 250 g ai/ha
  Plant response rating (scale of 0 to 100), Galium: 90
[5]; [13]
  Plant response rating, Corn: 0
[5]; [14]
  Plant response rating, Corn: 0
[5]; [15]
  Plant response rating, Corn: 10
[5]; [16]
  Plant response rating, Corn: 35
[5]; [17]
  Corn plant response rating: 20
[5]; [19]
  Corn plant response rating: 85
[5]; [18]
  Plant response rating, Corn: 75
[5]; Preemergence, 250 g ai/ha
  Plant response rating (scale of 0 to 100), Corn: 85
[6]; [13]
  Plant response rating, Crabgrass, Large: 30
[6]; [14]
  Plant response rating, Crabgrass, Large: 50
[6]; [15]
  Plant response rating, Crabgrass, Large: 60
[6]; [16]
  Plant response rating, Crabgrass, Large: 75
[6]; [17]
  Crabgrass, Large plant response rating: 90
[6]; [19]
  Crabgrass, Large plant response rating: 95
[6]; [18]
  Plant response rating, Crabgrass, Large: 98
[6]; Preemergence, 250 g ai/ha
  Plant response rating (scale of 0 to 100), Crabgrass, Large: 98
[7]; [13]
  Plant response rating, Johnsongrass: 0
[7]; [14]
  Plant response rating, Johnsongrass: 20
[7]; [15]
  Plant response rating, Johnsongrass: 25
[7]; [16]
  Plant response rating, Johnsongrass: 25
[7]; [17]
  Johnsongrass plant response rating: 10
[7]; [19]
  Johnsongrass plant response rating: 60
[7]; [18]
  Plant response rating, Johnsongrass: 70
[7]; Preemergence, 250 g ai/ha
  Plant response rating (scale of 0 to 100), Johnsongrass: 85
[8]; [13]
  Plant response rating, Ragweed: 70
[8]; [14]
  Plant response rating, Ragweed: 75
[8]; [15]
  Plant response rating, Ragweed: 80
[8]; [16]
  Plant response rating, Ragweed: 85
[8]; [17]
  Ragweed plant response rating: 65
[8]; [19]
  Ragweed plant response rating: 85
[8]; [18]
  Plant response rating, Ragweed: 85
[8]; Preemergence, 250 g ai/ha
  Plant response rating (scale of 0 to 100), Ragweed: 100
[9]; [13]
  Plant response rating, Soybean: 0
[9]; [14]
  Plant response rating, Soybean: 0
[9]; [15]
  Plant response rating, Soybean: 5
[9]; [16]
  Plant response rating, Soybean: 10
[9]; [17]
  Soybean plant response rating: 0
[9]; [19]
  Soybean plant response rating: 25
[9]; [18]
  Plant response rating, Soybean: 0
[9]; Preemergence, 250 g ai/ha
  Plant response rating (scale of 0 to 100), Soybean: 10
[10]; [13]
  Plant response rating, Oilseed Rape: 0
[10]; [14]
  Plant response rating, Oilseed Rape: 0
[10]; [15]
  Plant response rating, Oilseed Rape: 50
[10]; [16]
  Plant response rating, Oilseed Rape: 50
[10]; [17]
  Oilseed Rape plant response rating: 25
[10]; [19]
  Oilseed Rape plant response rating: 80
[10]; [18]
  Plant response rating, Oilseed Rape: 85
[10]; Preemergence, 250 g ai/ha
  Plant response rating (scale of 0 to 100), Oilseed Rape: 90
[11]; [13]
  Plant response rating, Waterhemp: 60
[11]; [14]
  Plant response rating, Waterhemp: 65
[11]; [15]
  Plant response rating, Waterhemp: 75
[11]; [16]
  Plant response rating, Waterhemp: 85
[11]; [17]
  Waterhemp plant response rating: 85
[11]; [19]
  Waterhemp plant response rating: 95
[11]; [18]
  Plant response rating, Waterhemp: 100
[11]; Preemergence, 250 g ai/ha
  Plant response rating (scale of 0 to 100), Waterhemp: 100
[12]; 31 g ai/ha, scale 0 to 100 (0 no effect, 100 complete control)
  Plant response rating, Oat, Wild: 0
[12]; 62 g ai/ha, scale 0 (no effect) to 100 (complete control)
  Plant response rating, Oat, Wild: 0
[12]; 125 g ai/ha, scale 0 to 100 (0 no effect, 100 complete control)
  Plant response rating, Oat, Wild: 30
[12]; 250 g ai/ha, scale 0 to 100 (0 no effect, 100 complete control)
  Plant response rating, Oat, Wild: 10
